Results: patent publication US9149536B2, “Conjugated antimicrobial agents” (priority 2009, dated 2015)
Values after ≈ are worked out from the molar mass of the structure shown.

Key:
[1] = system: E. coli AG100B; experiment: MIC, double-microdilution, E. coli AG100B; assay type: cell-based, Escherichia coli; settings: Table 4; kanamycin resistant, APH(3′)-I
Text: AG100B and AG100A are two kanamycin resistant Escherichia coli strains expressing APH(3′)-I aminoglycoside resistance enzyme.

[2] = system: MRSA ATCC 43300; experiment: microbe, parasite or virus in culture; assay type: cell-based, S. aureus; settings: Table 4
[3] = system: E. coli AG100A; experiment: MIC, double-microdilution, E. coli AG100A; assay type: cell-based, Escherichia coli; settings: Table 4; kanamycin resistant, APH(3′)-I
[4] = system: B. subtilis ATCC 6633; experiment: MIC, double-microdilution, B. subtilis ATCC 6633; assay type: cell-based; settings: Table 4
[5] = system: E. coli ATCC 25922; experiment: MIC, double-microdilution, E. coli ATCC 25922; assay type: cell-based, Escherichia coli; settings: Table 4
[6] = system: E. coli R477-100; experiment: MIC, double-microdilution, E. coli R477-100; assay type: cell-based, Escherichia coli; settings: Table 4

| Compound | MIC E. coli AG100B [1] [µg/mL] | MIC MRSA ATCC 43300 [2] [µg/mL] | MIC E. coli AG100A [3] [µg/mL] | MIC B. subtilis ATCC 6633 [4] [µg/mL] | MIC E. coli ATCC 25922 [5] [µg/mL] | MIC E. coli R477-100 [6] [µg/mL] |
| --- | --- | --- | --- | --- | --- | --- |
| NCC1OC(OC2C(C(=O)NCc3cn(CCN4CCN(c5cc6c(cc5F)c(=O)c(C(=O)O)cn6C5CC5)CC4)nn3)OC(OC3C(O)C(N)CC(N)C3OC3OC(CN)C(O)C(O)C3N)C2O)C(N)C(O)C1O (stereo not drawn) [Compound 1j, N-((1-(4-(ciprofloxacin)ethyl)-1H-1,2,3-triazol-4-yl)-5″-methyl)neomycin carboxamide] | 12 (≈ 11.3 µM) | 24 (≈ 22.5 µM) | 1.5 (≈ 1.41 µM) | 3 (≈ 2.81 µM) | 6 (≈ 5.63 µM) | 12 (≈ 11.3 µM) |
| NCC1OC(OC2C(C(=O)Nc3ccc(-c4cn(CCCN5CCN(c6cc7c(cc6F)c(=O)c(C(=O)O)cn7C6CC6)CC5)nn4)cc3)OC(OC3C(O)C(N)CC(N)C3OC3OC(CN)C(O)C(O)C3N)C2O)C(N)C(O)C1O (stereo not drawn) [Compound 1b, N-(4-(1-(2-(ciprofloxacin)propyl)-1H-1,2,3-triazol-4-yl)-5″-phenyl)neomycin carboxamide] | 12 (≈ 10.5 µM) | 48 (≈ 42 µM) | 1.5 (≈ 1.31 µM) | 6 (≈ 5.25 µM) | 3 (≈ 2.63 µM) | 6 (≈ 5.25 µM) |
| NCC1OC(OC2C(C(=O)Nc3ccc(-c4cn(CCN5CCN(c6cc7c(cc6F)c(=O)c(C(=O)O)cn7C6CC6)CC5)nn4)cc3)OC(OC3C(O)C(N)CC(N)C3OC3OC(CN)C(O)C(O)C3N)C2O)C(N)C(O)C1O (stereo not drawn) [Compound 1a, N-(4-(1-(2-(ciprofloxacin)ethyl)-1H-1,2,3-triazol-4-yl)-5″-phenyl)neomycin] | 24 (≈ 21.3 µM) | 48 (≈ 42.5 µM) | 0.75 (≈ 0.665 µM) | 6 (≈ 5.32 µM) | 6 (≈ 5.32 µM) | 12 (≈ 10.6 µM) |
| N-(4-(1-(4-((ciprofloxacin)methyl)benzyl)-1H-1,2,3-triazol-4-yl)-5″-phenyl)neomycin carboxamide [Compound 1h] | 12 | 12 | 1.5 | 6 | 12 | 6 |
| NCC1OC(OC2C(C(=O)NCc3cn(CCOCCN4CCN(c5cc6c(cc5F)c(=O)c(C(=O)O)cn6C5CC5)CC4)nn3)OC(OC3C(O)C(N)CC(N)C3OC3OC(CN)C(O)C(O)C3N)C2O)C(N)C(O)C1O (stereo not drawn) [Compound 1n, N-((1-(2-(2-(ciprofloxacin)ethoxy)ethyl)-1H-1,2,3-triazol-4-yl)-5″-methyl)neomycin carboxamide] | 12 (≈ 10.8 µM) | 24 (≈ 21.6 µM) | 1.5 (≈ 1.35 µM) | 12 (≈ 10.8 µM) | 6 (≈ 5.4 µM) | 12 (≈ 10.8 µM) |
| NCC1OC(OC2C(C(=O)Nc3ccc(-c4cn(CCCCCN5CCN(c6cc7c(cc6F)c(=O)c(C(=O)O)cn7C6CC6)CC5)nn4)cc3)OC(OC3C(O)C(N)CC(N)C3OC3OC(CN)C(O)C(O)C3N)C2O)C(N)C(O)C1O (stereo not drawn) [Compound 1d, N-(4-(1-(2-(ciprofloxacin)pentyl)-1H-1,2,3-triazol-4-yl)-5″-phenyl)neomycin carboxamide] | 24 (≈ 20.5 µM) | 48 (≈ 41 µM) | 1.5 (≈ 1.28 µM) | 12 (≈ 10.3 µM) | 6 (≈ 5.13 µM) | 12 (≈ 10.3 µM) |
| NCC1OC(OC2C(C(=O)Nc3ccc(-c4cn(CCCCCCN5CCN(c6cc7c(cc6F)c(=O)c(C(=O)O)cn7C6CC6)CC5)nn4)cc3)OC(OC3C(O)C(N)CC(N)C3OC3OC(CN)C(O)C(O)C3N)C2O)C(N)C(O)C1O (stereo not drawn) [Compound 1e, N-(4-(1-(2-(ciprofloxacin)hexyl)-1H-1,2,3-triazol-4-yl)-5″-phenyl)neomycin carboxamide] | 12 (≈ 10.1 µM) | 48 (≈ 40.5 µM) | 1.5 (≈ 1.27 µM) | 12 (≈ 10.1 µM) | 6 (≈ 5.07 µM) | 6 (≈ 5.07 µM) |
